How the values were obtained:
[1] = Cell cycle arrest in human KB cells assessed as accumulation at G2/M-phase at 0.05 uM measured after 12 hrs by propidium iodide staining-based flow cytometry (reference value: 30.19%); format: functional
[2] = Cell cycle arrest in human KB cells assessed as accumulation at S-phase measured after 24 hrs by propidium iodide staining-based flow cytometry (reference value: 16.96%); format: functional
[3] = Cell cycle arrest in human KB cells assessed as accumulation at G2/M-phase at 0.05 uM measured after 24 hrs by propidium iodide staining-based flow cytometry (reference value: 28.84%); format: functional
[4] = Cell cycle arrest in human KB cells assessed as accumulation at S-phase at 0.05 uM measured after 36 hrs by propidium iodide staining-based flow cytometry (reference value: 16.51%); format: functional
[5] = Antiproliferative activity against human KB cells measured after 72 hrs by MTT assay; format: functional, cell-based
[6] = Cell cycle arrest in human KB cells assessed as accumulation at G0/G1-phase measured after 24 hrs by propidium iodide staining-based flow cytometry (reference value: 48.52%); format: functional
[7] = Cell cycle arrest in human KB cells assessed as accumulation at S-phase at 0.05 uM measured after 60 hrs by propidium iodide staining-based flow cytometry (reference value: 12.66%); format: functional
[8] = Cell cycle arrest in human KB cells assessed as accumulation at SubG1-phase at 0.05 uM measured after 24 hrs by propidium iodide staining-based flow cytometry (reference value: 0.76%); format: functional
[9] = Cell cycle arrest in human KB cells assessed as accumulation at S-phase at 0.2 uM measured after 60 hrs by propidium iodide staining-based flow cytometry (reference value: 12.66%); format: functional
[10] = Cell cycle arrest in human KB cells assessed as accumulation at S-phase at 0.2 uM measured after 12 hrs by propidium iodide staining-based flow cytometry (reference value: 15.5%); format: functional
[11] = Cell cycle arrest in human KB cells assessed as accumulation at G0/G1-phase at 0.2 uM measured after 48 hrs by propidium iodide staining-based flow cytometry (reference value: 58.26%); format: functional
[12] = Cell cycle arrest in human KB cells assessed as accumulation at SubG1-phase measured after 48 hrs by propidium iodide staining-based flow cytometry (reference value: 0.61%); format: functional
[13] = Cell cycle arrest in human KB cells assessed as accumulation at SubG1-phase at 0.1 uM measured after 12 hrs by propidium iodide staining-based flow cytometry (reference value: 1.23%); format: functional
[14] = Cell cycle arrest in human KB cells assessed as accumulation at G2/M-phase at 0.1 uM measured after 24 hrs by propidium iodide staining-based flow cytometry (reference value: 28.84%); format: functional
[15] = Cell cycle arrest in human KB cells assessed as accumulation at G0/G1-phase at 0.05 uM measured after 48 hrs by propidium iodide staining-based flow cytometry (reference value: 58.26%); format: functional
[16] = Cell cycle arrest in human KB cells assessed as accumulation at S-phase at 0.1 uM measured after 12 hrs by propidium iodide staining-based flow cytometry (reference value: 15.5%); format: functional
[17] = Cell cycle arrest in human KB cells assessed as accumulation at G0/G1-phase at 0.05 uM measured after 60 hrs by propidium iodide staining-based flow cytometry (reference value: 63.85%); format: functional
[18] = Cell cycle arrest in human KB cells assessed as accumulation at SubG1-phase at 0.2 uM measured after 48 hrs by propidium iodide staining-based flow cytometry (reference value: 0.61%); format: functional
[19] = Cell cycle arrest in human KB cells assessed as accumulation at SubG1-phase at 0.1 uM measured after 24 hrs by propidium iodide staining-based flow cytometry (reference value: 0.76%); format: functional
[20] = Cell cycle arrest in human KB cells assessed as accumulation at S-phase measured after 12 hrs by propidium iodide staining-based flow cytometry (reference value: 15.5%); format: functional
[21] = Cell cycle arrest in human KB cells assessed as accumulation at S-phase at 0.2 uM measured after 24 hrs by propidium iodide staining-based flow cytometry (reference value: 16.96%); format: functional
[22] = Cell cycle arrest in human KB cells assessed as accumulation at G2/M-phase at 0.2 uM measured after 36 hrs by propidium iodide staining-based flow cytometry (reference value: 27.34%); format: functional
[23] = Cell cycle arrest in human KB cells assessed as accumulation at S-phase at 0.05 uM measured after 12 hrs by propidium iodide staining-based flow cytometry (reference value: 15.5%); format: functional
[24] = Cell cycle arrest in human KB cells assessed as accumulation at G2/M-phase at 0.2 uM measured after 24 hrs by propidium iodide staining-based flow cytometry (reference value: 28.84%); format: functional
[25] = Cell cycle arrest in human KB cells assessed as accumulation at SubG1-phase at 0.2 uM measured after 36 hrs by propidium iodide staining-based flow cytometry (reference value: 0.63%); format: functional
[26] = Cell cycle arrest in human KB cells assessed as accumulation at G0/G1-phase at 0.2 uM measured after 60 hrs by propidium iodide staining-based flow cytometry (reference value: 63.85%); format: functional
[27] = Inhibition of porcine brain tubulin polymerization measured after 60 mins by fluorescence analysis; design: species or system Sus scrofa
[28] = Cell cycle arrest in human KB cells assessed as accumulation at G2/M-phase at 0.05 uM measured after 48 hrs by propidium iodide staining-based flow cytometry (reference value: 23.36%); format: functional
[29] = Cell cycle arrest in human KB cells assessed as accumulation at G0/G1-phase at 0.05 uM measured after 36 hrs by propidium iodide staining-based flow cytometry (reference value: 51.51%); format: functional
[30] = Cell cycle arrest in human KB cells assessed as accumulation at G2/M-phase measured after 60 hrs by propidium iodide staining-based flow cytometry (reference value: 18.9%); format: functional
[31] = Cell cycle arrest in human KB cells assessed as accumulation at SubG1-phase at 0.1 uM measured after 60 hrs by propidium iodide staining-based flow cytometry (reference value: 1.24%); format: functional
[32] = Cell cycle arrest in human KB cells assessed as accumulation at G2/M-phase at 0.2 uM measured after 48 hrs by propidium iodide staining-based flow cytometry (reference value: 23.36%); format: functional
[33] = Cell cycle arrest in human KB cells assessed as accumulation at SubG1-phase measured after 60 hrs by propidium iodide staining-based flow cytometry (reference value: 1.24%); format: functional
[34] = Cell cycle arrest in human KB cells assessed as accumulation at SubG1-phase at 0.1 uM measured after 48 hrs by propidium iodide staining-based flow cytometry (reference value: 0.61%); format: functional
[35] = Cell cycle arrest in human KB cells assessed as accumulation at G2/M-phase measured after 48 hrs by propidium iodide staining-based flow cytometry (reference value: 23.36%); format: functional
[36] = Cell cycle arrest in human KB cells assessed as increase in subG1-peak at 0.2 uM by propidium iodide staining-based flow cytometry; format: functional; details: TDE = time-dependent effect
[37] = Cell cycle arrest in human KB cells assessed as accumulation at G2/M-phase measured after 36 hrs by propidium iodide staining-based flow cytometry (reference value: 27.34%); format: functional

COc1ccc(-c2ssc(=O)c2-c2cc(OC)c(OC)c(OC)c2)cc1N
Activity [1]: 30.5% | Activity [2]: 26.9% | Activity [3]: 36.6% | Activity [4]: 11.7% | IC50 [5]: 60 nM | Activity [6]: 6.89% | Activity [7]: 8.75% | Activity [8]: 6.04% | Activity [9]: 6.33% | Activity [10]: 22.8% | Activity [11]: 11.7% | Activity [12]: 56.1% | Activity [13]: 2.67% | Activity [14]: 41.8% | Activity [15]: 50.9% | Activity [16]: 21.6% | Activity [17]: 37.8% | Activity [18]: 49.9% | Activity [19]: 16% | Activity [20]: 21.5% | Activity [21]: 22.2% | Activity [22]: 34.7% | Activity [23]: 16.4% | Activity [24]: 55.8% | Activity [25]: 33.2% | Activity [26]: 10.4% | IC50 [27]: 4440 nM | Activity [28]: 18.5% | Activity [29]: 50.3% | Activity [30]: 15.6% | Activity [31]: 57.8% | Activity [32]: 19.4% | Activity [33]: 58.1% | Activity [34]: 33.6% | Activity [35]: 15.5% | Activity [36]: Tde | Activity [37]: 27.9%
